Measured values reported in article PMC5503262, “Solution conformations of Zika NS2B-NS3pro and its inhibition by natural products from edible plants” (PLoS ONE, 2017).
“And” between values parts separate entries of the source, which are not always exact repeats. Equal values may be shown once. “Also recorded” adds a separate entry of the source. Read-outs that look alike come from different tables or passages of the source.

Tests used:
[1] = molecular target: T1, Zika NS2B-NS3pro (unlinked complex) (Zika virus, UniProt A0A024B7W1); assay: Inhibition of unlinked Zika NS2B-NS3pro, fluorogenic substrate Bz-nKRR-AMC; type: biochemical; details: for inhibitory activity (in words): compound concentration up to 500 μM; for Inhibition at 500 μM: initial screening, compound 500 μM, protease 50 nM; for Inhibition at 500 μM / IC50: Bz-nKRR-AMC 250 μM
T1 construct: DNA fragments encoding the isolated NS3 (14–185) and NS2B (48–100) with the transmembrane regions removed; His-tag (cleaved yes); made in house; host or cells: Escherichia coli BL21 (DE3) Star
Protocol: Due to the urgency to fight ZIKV infection, we attempted to screen the inhibitors of Zika NS2B-NS3pro from natural products rich in edible plants. To better reflect the situation in vivo, here we selected the unlinked Zika NS2B-NS3pro complex for screening. However as most natural products are largely insoluble in aqueous buffers, we have assessed effects of DMSO and glycerol on the conformations (Fig 1E and 1F) as well as on catalytic parameters (Table 1). Consequently, 50 mM Tris buffer at pH 8.5 + 20% Glycerol was utilized as the screening buffer as it could dissolve all natural products in the present study but has no significant effect on the conformation of Zika NS2B-NS3pro (Fig 1F).
To allow comparison with the NS2B-NS3pro complexes of four Dengue serotypes (17), we selected three fluorophore-tagged substrates previously used (17): namely Bz-Nle-Lys-Arg-Arg-AMC, Boc-Gly-Arg-Arg-AMC and Boc-Gly-Lys-Arg-AMC (Bachem AG, Bubendorf), which were dissolved in dimethyl sulfoxide for preparing stock solutions (100 mM). All enzymatic experiments were performed in triplicate and data are presented as mean ± SD, while IC50, Km and Ki were obtained by fitting with GraphPad Prism 7.0 [61].
All natural products were purchased from Sigma-Aldrich, which are all HPLC purified. After optimization of buffer conditions, here, we selected 50 mM Tris-HCl buffer at pH 8.5 in the presence of 20% glycerol which could dissolve all natural products. Briefly, for the initial screening, the Zika protease at 50 nM was preincubated for 30 min with different compounds at final concentrations of 5 and 500 μM dissolved in 1 μl DMSO, followed by adding Bz-nKRR-AMC to 250 μM to initiate reaction. Only the compounds showing significant inhibitions at both concentrations were subjected to further determination of IC50 and Ki.
For Ki determination, the assay was performed with different final concentrations of the inhibitors and substrate. Briefly, the Zika protease at 50 nM was preincubated with the inhibitor at different concentrations for 30 min at 37°C. Subsequently, the reaction was initiated by addition of the corresponding concentration series of the substrate. All measurements were performed in triplicate and data are presented as mean ± SD. The Ki was obtained by fitting in the non-competitive inhibition mode with GraphPad Prism 7.0, with an equation: Vmaxinh = Vmax/(1+I/Ki), while I is the concentration of inhibitor [61].

[2] = molecular target: Dengue-2 NS2B-NS3pro; design: method as in PMID 25564380; details: allosteric inhibition, previously characterized; cited from earlier work
[3] = molecular target: linked Zika NS2B-NS3pro; details: linked enzyme, assay buffer pH 7; cited from earlier work
[4] = 50 mM Tris-HCl pH 8.5 + 20% glycerol
[5] = non-competitive fit, protease 50 nM preincubated 30 min at 37°C, 50 mM Tris-HCl pH 8.5 + 20% glycerol, mean ± SD, triplicate, read-out: Ki
[6] = protease 50 nM preincubated 30 min at 37°C, 50 mM Tris-HCl pH 8.5 + 20% glycerol, mean ± SD, triplicate, read-out: IC50
[7] = IC50, protease 50 nM preincubated 30 min at 37°C, 50 mM Tris-HCl pH 8.5 + 20% glycerol, mean ± SD, triplicate
[8] = Ki, non-competitive fit, protease 50 nM preincubated 30 min at 37°C, 50 mM Tris-HCl pH 8.5 + 20% glycerol, mean ± SD, triplicate

T1 sequence (A0A024B7W1 1420-1472): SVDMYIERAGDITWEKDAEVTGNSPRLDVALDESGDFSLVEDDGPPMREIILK
T1 sequence (A0A024B7W1 1516-1687): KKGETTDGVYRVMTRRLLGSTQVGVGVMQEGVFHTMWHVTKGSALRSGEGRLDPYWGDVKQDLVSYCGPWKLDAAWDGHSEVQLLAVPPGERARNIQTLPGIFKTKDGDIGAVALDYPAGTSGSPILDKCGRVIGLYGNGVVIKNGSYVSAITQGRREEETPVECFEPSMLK

Row | SMILES | inhibitory activity (in words) [1] | Inhibition at 500 μM [1, 4] | Ki [1, 5] | IC50 [1, 6] | IC50 [1, 7] [µM] | other results
1 | O=c1c(-c2ccc(O)cc2)coc2cc(O)ccc12 [Daidzein] | no inhibitory activity was detected; also recorded: inactive | No | – | – | – | –
2 | O=c1c(O)c(-c2ccc(O)c(O)c2)oc2cc(O)cc(O)c12 [Quercetin] | – | Yes | 1.12 µM and 1.1 µM | 2.42 µM and 2.4 µM | – | Ki [2]: 20.7 µM
3 | Oc1cc(O)c2c(c1)O[C@H](c1ccc(O)c(O)c1)[C@@H](O)C2 [Catechin] | inactive | No | – | – | – | inhibitory activity (in words) ([1]; listed as Catechine): no inhibitory activity was detected
4 | COc1cc(/C=C/C(=O)CC(=O)/C=C/c2ccc(O)c(OC)c2)ccc1O [Curcumin] | – | Yes | 2.61 µM and 2.6 µM | 3.45 µM and 3.5 µM | – | –
5 | COc1cc(-c2oc3cc(O)cc(O)c3c(=O)c2O)ccc1O [Isorhamnetin] | – | Yes | – | – | 15.5 | Ki [1, 8]: 6.22 µM and 6.2 µM
6 | O=c1c(O)c(-c2cc(O)c(O)c(O)c2)oc2cc(O)cc(O)c12 [Myricetin] | – | Yes | 0.8 ± 0.1 µM | 1.3 ± 0.1 µM | 1.26 | Ki [2]: 4.7 µM; Ki ([1]; Ki, non-competitive mode, unlinked enzyme, pH 8.5): 0.77 µM; Ki [3]: 8.9 µM
7 | Oc1ccc(/C=C/c2cc(O)cc(O)c2)cc1 [Resveratrol] | no inhibitory effect was detected; also recorded: no detectable inhibitory activity | No | – | – | – | –
8 | O=c1cc(-c2ccc(O)cc2)oc2cc(O)cc(O)c12 [Apigenin] | – | Yes | – | 56.3 µM | 56.3 ± 0.9 | Ki [1, 8]: 34 µM
9 | O=c1cc(-c2ccc(O)c(O)c2)oc2cc(O)cc(O)c12 [Luteolin] | – | Yes | 1.4 ± 0.1 µM | 2.7 ± 0.3 µM | – | –
